Source: US10975352B2, “Methods of enhancing cell survival of stem cells” (The Scripps Research Institute, priority 2008, dated 2021)

What was measured:
hESCs [1] = test: ALP positive colony formation / low-density survival assay of dissociated hESCs on Matrigel; assay type: cell-based, human; details: for Activity (% ALP positive colony formation by hESCs): Ratio of ALP positive colonies vs. total initially seeded cells
Description: Human ESC lines H1, HUES7 and HUES9 were cultured on irradiated MEF feeder cells in DMEM-F12 supplemented with 2 mM L-glutamine, lx nonessential amino acids, 20% serum replacement (Invitrogen) and 10 ng/ml basic Fibroblast growth factor (Invitrogen). Chemically-defined and feeder-free hESC culture was described previously (Yao, S. et al., Proc Natl Acad Sci USA 103 (18):6907-6912 (2006)). Briefly, hESCs were grown on Matrigel-coated tissue culture plates in N2B27-CDM (DMEM-F12 supplemented with 1×N2 supplements, lx B27 supplements, 2 mM L-glutamine, 0.11 mM 2-mercaptoethanol, lx nonessential amino acids, and 0.5 mg/ml BSA (fraction V)) and 20 ng/ml bFGF. Human ESCs were passaged every 5-6 days with 0.05% trypsin.
For clonal survival assays, single hESCs were diluted to clonal density and plated onto 96-well Matrigel-coated plate. For low-density survival assays, 500 cells were plated onto 96-well Matrigel-coated plate. To visualize hESC colonies, cultures were fixed in 4% paraformaldehyde in PBS for 5 min, washed once in PBS, then stained for alkaline phosphatase activity as described in manufacturer's instructions. ALP positive colonies were counted on an inverted microscope.
ALP detection kit and integrin antibodies were from Chemicon. AG825 (Erb2 inhibitor), AG1478 (EGFR inhibitor), PPP (IGFR1 inhibitor) were purchased from Calbiochem. Antibodies raised against the intracytoplasmic tail of E-cadherins (Transduction Laboratories, Lexington, Ky.) were used for immunoprecipitation. The antibody TS2/16 was from Pierce. Antibodies to the extracellular domain of E-cadherin molecule were from Zymed (Carlsbad). Antibodies against extracellular signal-regulated kinase/MAPK, EGFR1, ERB2, GADPH and phosphorylated form of AKT were from Cell Signaling. Mouse monoclonal anti-phosphotyrosine (4G-10 clone) was from Upstate Biotechnology. Ptn and Tzv were added to culture medium at 2 μM. […]

hESCs [2] = test: Cell adhesion assay; assay type: cell-based, human
Description: Cell adhesion assays were performed in 96-well microtiter plates coated with Matrigel. After trypsin, hESCs were resuspended in the chemically-defined media containing the desired compounds. Cells were then added to the microtiter wells and incubated for 3 h at 37° C. Unbound and loosely bound cells were removed by shaking and washing, and the remaining cells were then fixed immediately. The wells were washed 3 times with 200 μl of H2O, and attached cells were stained with Crystal Violet (Sigma). The absorbance of each well at 570 nm was then measured. For experiments with blocking antibodies, cells were pre-incubated with antibodies on ice for 30 min, and adhesion assays were performed in the presence of antibodies. Each sample was assayed independently for three times.

β1 integrin = test: Activated β1 integrin (HUTS-21 binding; flow cytometry, immunostaining); assay type: cell-based, human; details: PMA 10 nM; immunostaining of active β1 integrins
Text: To gain insights into the mechanism of β1 integrin regulation by Tzv and Ptn, we investigated whether the compounds' effect is due to changes of integrin expression. In contrast to E-cadherin, β1 integrin was not cleaved by trypsin. […] Thus, Tzv and Ptn are likely to affect cell adhesion by modulating integrin activity (FIG. 3 d,e). To examine the effects of compound treatment on the activity of β1 integrin, we used the monoclonal antibody HUTS-21, which specifically binds to the activated form of the 131 integrin (Luque, A. et al., J Biol Chem 271 (19):11067-11075 (1996)).
To assess the expression of E-cadherin, activated integrin and SSEA4, dissociated cells (3×10^5) were washed with PBS and resuspended in PBS containing 2% goat serum. Cells were then incubated with the appropriate antibody for 1 h at 4° C., washed with the blocking solution, and labeled with FITC-conjugated secondary antibody for 30 min at 4° C. Cells were then washed and analyzed on a FACS Calibur flow cytometer.

[3] = system: epithelial to mesenchymal transition/EMT; test: Induction of MET / inhibition of EMT; assay type: cell-based
stem cells = test: Survival and anti-differentiation of stem cells ex vivo; assay type: cell-based; details: human and mouse embryonic, neural, skin, mesenchymal, hematopoietic, stromal and epithelial stem cells; contact immediately after isolation
Text: In some embodiments, the invention provides methods of promoting survival and anti-differentiation in stem cells ex-vivo.

hESCs [4] = test: Karyotyping (G-banding) of long-term expanded hESCs; assay type: cell-based, human; details: more than 20 generations; chemically-defined medium
Description: Teratoma formation experiments were performed by injecting 3-5 million hESCs (maintained in the presence of compounds Tvz or Ptn) under the kidney capsule of nude mice. After 4-5 weeks, all mice developed teratomas, which were removed and then immunohistologically analyzed by The Scripps Research Institute Research Histology Service and Animal Resources. Compounds treated cells were karyotyped by standard G-banding at the Children's Hospital Oakland, Cytogenetics Laboratory. No chromosomal abnormality was found in the 10 randomly picked nuclei.

[5] = system: growth factor receptors, AKT and ERK; test: Western blot of phosphorylation status in hESCs; assay type: cell-based, human
Text: Interplay between physical/structural environment and growth factor plays a very important role in cell fate regulation (Comoglio, P. M., Boccaccio, C., & Trusolino, L., Curr Opin Cell Biol 15 (5):565-571 (2003)). To examine whether growth factors are involved in integrin-mediated hESC survival, we treated dissociated hESCs with Tzv or Ptn together with individual highly specific growth factor receptor inhibitors. […] Similarly inhibition of FGFR, IGFR, EGFR1 or Erb2 also greatly abolished Tzv-induced hESC survival in suspension culture.
Phosphatidylinositol-3-kinase (PI-3K) signaling and MAPK/ERK are major regulators for hESC self-renewal (Armstrong, L. et al., Hum Mol Genet 15 (11): 1894-1913 (2006); Paling, N. R. et al., J Biol Chem 279 (46):48063-48070 (2004); Pyle, A. D., Lock, L. F., & Donovan, P. J., Nat Biotechnol 24 (3):344-350 (2006); Li, J. et al., Differentiation 75 (4):299-307 (2007)). Phosphorylation of ERK and AKT, a downstream effector of PI-3K, were increased upon treatment of dissociated hESCs with Ptn, and this increase was abolished by integrin blocking antibody (FIG. 4e,f). Moreover, activation of AKT and ERK by Ptn was blocked by inhibitors of FGFR, IGFR, EGFR or Erb2 (FIG. 4g and data not shown).

hESCs [6] = test: Cell death analysis of dissociated hESCs in suspension culture; assay type: cell-based, human
Text: hESCs are known to be difficult in forming embryoid bodies (EBs) in suspension culture after single cell dissociation due to extensive cell death. Thus, we also tested whether Tzv or Ptn could promote survival of dissociated hESCs in suspension. […] Because cell aggregation is most often mediated through cell-cell adhesions and E-cadherin is the primary cell-cell adhesion molecule, as well as highly expressed in hESCs (Eastham, A. M. et al., Cancer Res 67 (23): 11254-11262 (2007)), we tested the effect of a specific E-cadherin blocking antibody on multicellular aggregate formation.
The hESCs under different treatments were dissociated by trypsin and fixed by 4% paraformaldehyde. And the staining was carried out according to the manufacturer's instructions (MBL Laboratories, Watertown, Mass.). After staining, samples were analysed by flow cytometry using a FACS Calibur flow cytometer (BD).

Row | Compound | Activity (% ALP positive colony formation by hESCs) (hESCs [1]) [%] | also measured
1 | O=C(NCc1ccccc1)c1csc(Nc2ccccc2)n1 | 4.5 | –
2 | O=C(NCc1ccccc1)c1csc(Nc2ccccn2)n1 | 5.2 | –
3 | O=C(NCc1ccccc1)c1csc(Nc2ccncc2)n1 | 20.3 | –
4 | COc1ccc(CNC(=O)c2csc(Nc3ccncn3)n2)cc1 | 5 | –
5 | CC(C)CCNS(=O)(=O)c1ccc(Nc2nccc(N3CCCc4cc(O)ccc43)n2)cc1 | 23.5 | –
6 | O=S(=O)(NC1CC1)c1ccc(Nc2nccc(N3CCCc4cc(O)ccc43)n2)cc1 | 8 | –
7 | O=C(NCC1CC1)c1ccc(Nc2nccc(N3CCCc4cc(O)ccc43)n2)cc1 | 2.9 | –
8 | CNS(=O)(=O)c1ccc(Nc2nccc(N3CCCc4cc(O)ccc43)n2)cc1 | 5.7 | –
9 | CC(C)CCNS(=O)(=O)c1ccc(Nc2nccc(N3CCc4ccccc43)n2)cc1 | 3.1 | –
10 | O=S(=O)(NC1CC1)c1ccc(Nc2nccc(N3CCc4ccccc43)n2)cc1 | 6.2 | –
11 | O=S(=O)(NCC1CC1)c1ccc(Nc2nccc(N3CCc4ccccc43)n2)cc1 | 6.1 | –
12 | O=S(=O)(NCC1CC1)c1ccc(Nc2nccc(N3Cc4ccccc4C3)n2)cc1 | 3.5 | –
13 | CNS(=O)(=O)c1ccc(Nc2nccc(N3CCc4ccccc4C3)n2)cc1 | 3.6 | –
14 | CC(C)CCNS(=O)(=O)c1ccc(Nc2nccc(N3CCc4ccccc4C3)n2)cc1 | 3.2 | –
15 | CNS(=O)(=O)c1ccc(Nc2nccc(N3CCCc4ccccc43)n2)cc1 | 3 | –
16 | CC(C)CCNS(=O)(=O)c1ccc(Nc2nccc(N3CCCc4ccccc43)n2)cc1 | 3.4 | –
17 | O=S(=O)(NC1CC1)c1ccc(Nc2nccc(N3CCCc4ccccc43)n2)cc1 | 3.1 | –
18 | O=S(=O)(NCC1CC1)c1ccc(Nc2nccc(N3CCCc4ccccc43)n2)cc1 | 5.2 | –
19 | CNS(=O)(=O)c1ccc(Nc2nccc(N3CCCc4cc(OC)ccc43)n2)cc1 | 3.1 | –
20 | COc1ccc2c(c1)CCCN2c1ccnc(Nc2ccc(S(=O)(=O)NCCC(C)C)cc2)n1 | 3.3 | –
21 | O=S(=O)(NCC1CC1)c1ccc(Nc2nccc(Nc3ccccc3)n2)cc1 | 3.3 | –
22 | CC(C)CCNS(=O)(=O)c1cccc(Nc2nccc(N3CCCc4cc(O)ccc43)n2)c1 | 3.1 | –
23 | CCCCCCCCCCCCCC(=O)O[C@@H]1[C@@H](C)[C@@]2(O)[C@@H](C=C(CO)C[C@]3(O)C(=O)C(C)=C[C@@H]23)[C@@H]2C(C)(C)[C@]12OC(C)=O [PMA, phorbol 12-myristate 13-acetate, reference compound] | – | cell adhesion and colony formation of dissociated hESCs (hESCs [2]): substantial increase in cell adhesion and colony formation; integrin activation (β1 integrin): caused integrin activation
24 | O=S(=O)(NCC1CC1)c1ccc(Nc2nccc(N3CCCc4cc(O)ccc43)n2)cc1 [Ptn, N-(cyclopropylmethyl)-4-(4-(6-hydroxy-3,4-dihydroquinolin-1(2H)-yl)pyrimidin-2-ylamino)benzenesulfonamide] | – | MET induction and EMT inhibition [3]: can induce MET (the reverse of EMT) and inhibit EMT; survival and anti-differentiation of stem cells (stem cells): effective in promoting survival and anti-differentiation; adhesion of dissociated hESCs to Matrigel or laminin (hESCs [2]): dramatically increased adhesion; adhesion of hESCs to gelatin or poly-lysine (hESCs [2]): not affected; survival of dissociated hESCs in adherent culture (hESCs [1]; adherent culture (e.g. Matrigel-coated plate)): promoted survival; karyotype of hESCs serially passaged in compound-containing medium (hESCs [4]): normal karyotype; phosphorylation of ERK and AKT ([5]; dissociated hESCs): increased; phosphorylation of growth factor receptor ([5]; hESCs treated for 2 h, DMSO control): significantly increased the phosphorylation; survival of dissociated hESCs in suspension culture (hESCs [6]): had no effect
25 | CN(C)CCCn1cc(C2=C(c3c[nH]c4ccccc34)C(=O)NC2=O)c2ccccc21 [bisindolylmaleimide I, reference compound] | – | effect on increased cell adhesion induced by Ptn (hESCs [2]; PKC inhibitor in combination with Ptn): could antagonize the increased cell adhesion; effect on cell adhesion induced by Tzv (hESCs [2]; PKC inhibitor in combination with Tzv): had no effect
26 | O=C(NCc1ccccc1)c1csc(Nc2ccncn2)n1 [drawing 17] | 24.1 | –
27 | O=S(=O)(NCC1CC1)c1ccc(Nc2nccc(N3CCCc4cc(O)ccc43)n2)cc1 [drawing 23] | 23.2 | –
